Tested on: 186277-243-T-J2-PDC complex spheroid growth
Test: Anticancer human tumor 186277-243-T-J2-PDC patient-derived colon adenocarcinoma cell line growth inhibition [AhR]
Details: for IC50: curve of first compound; for viability, T/C: stronger effect = lower value
Method in brief: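 Complex tumor spheroids co-cultured with HUVEC and human MSC stroma; AhR antagonists tested in combination with standard-of-care and investigational agents. Top concentration at or near clinical Cmax (else 10 microM), half-log dilutions; growth expressed as percent test/control.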

[1] = second compound 0.1 µM, first compound 0.0316 µM
[2] = second compound 0.1 µM, first compound 0.1 µM
[3] = second compound 0.1 µM, first compound 0.316 µM
[4] = second compound 0.1 µM, first compound 1 µM
[5] = second compound 0.1 µM, first compound 3.16 µM
[6] = second compound 0.1 µM, first compound 10 µM
[7] = second compound 0.316 µM, first compound 0.0316 µM
[8] = second compound 0.316 µM, first compound 0.1 µM
[9] = second compound 0.316 µM, first compound 0.316 µM
[10] = second compound 0.316 µM, first compound 1 µM
[11] = second compound 0.316 µM, first compound 3.16 µM
[12] = second compound 0.316 µM, first compound 10 µM
[13] = second compound 1 µM, first compound 0.0316 µM
[14] = second compound 1 µM, first compound 0.1 µM
[15] = second compound 1 µM, first compound 0.316 µM
[16] = second compound 1 µM, first compound 1 µM
[17] = second compound 1 µM, first compound 3.16 µM
[18] = second compound 1 µM, first compound 10 µM
[19] = second compound 3.16 µM, first compound 0.0316 µM
[20] = second compound 3.16 µM, first compound 0.1 µM
[21] = second compound 3.16 µM, first compound 0.316 µM
[22] = second compound 3.16 µM, first compound 1 µM
[23] = second compound 3.16 µM, first compound 3.16 µM
[24] = second compound 3.16 µM, first compound 10 µM
[25] = second compound 10 µM, first compound 0.0316 µM
[26] = second compound 10 µM, first compound 0.1 µM
[27] = second compound 10 µM, first compound 0.316 µM
[28] = second compound 10 µM, first compound 1 µM
[29] = second compound 10 µM, first compound 3.16 µM
[30] = second compound 10 µM, first compound 10 µM
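Note: spheroids exposed to compounds for seven days before the viability read.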
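Throughout, for viability, T/C: luminescent signal used as a stand-in for viable cell amount; 100% = DMSO vehicle control wells.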

CCc1c2c(nc3ccc(O)cc13)-c1cc3c(c(=O)n1C2)COC(=O)[C@]3(O)CC + Cc1cncc(-c2nc(NCCc3c[nH]c4ccccc34)c3ncn(C(C)C)c3n2)c1
IC50 (second compound 0.1 µM): 23.2 nM
IC50 (second compound 0.316 µM): 20.4 nM
IC50 (second compound 1 µM): 26.2 nM
IC50 (second compound 3.16 µM): 17.8 nM
IC50 (second compound 10 µM): < 0.949 nM
viability, T/C (second compound 0.1 µM, first compound 0.000949 µM): 112%
viability, T/C (second compound 0.1 µM, first compound 0.003 µM): 96%
viability, T/C (second compound 0.1 µM, first compound 0.00949 µM): 66%
viability, T/C (second compound 0.1 µM, first compound 0.03 µM): 46.1%
viability, T/C (second compound 0.1 µM, first compound 0.0949 µM): 25.2%
viability, T/C (second compound 0.1 µM, first compound 0.3 µM): 11.7%
viability, T/C (second compound 0.316 µM, first compound 0.000949 µM): 126%
viability, T/C (second compound 0.316 µM, first compound 0.003 µM): 83.1%
viability, T/C (second compound 0.316 µM, first compound 0.00949 µM): 70.9%
viability, T/C (second compound 0.316 µM, first compound 0.03 µM): 44.2%
viability, T/C (second compound 0.316 µM, first compound 0.0949 µM): 21.7%
viability, T/C (second compound 0.316 µM, first compound 0.3 µM): 11.7%
viability, T/C (second compound 1 µM, first compound 0.000949 µM): 123%
viability, T/C (second compound 1 µM, first compound 0.003 µM): 83.7%
viability, T/C (second compound 1 µM, first compound 0.00949 µM): 73.5%
viability, T/C (second compound 1 µM, first compound 0.03 µM): 48.5%
viability, T/C (second compound 1 µM, first compound 0.0949 µM): 20.2%
viability, T/C (second compound 1 µM, first compound 0.3 µM): 11.8%
viability, T/C (second compound 3.16 µM, first compound 0.000949 µM): 108%
viability, T/C (second compound 3.16 µM, first compound 0.003 µM): 75.2%
viability, T/C (second compound 3.16 µM, first compound 0.00949 µM): 66.8%
viability, T/C (second compound 3.16 µM, first compound 0.03 µM): 43.7%
viability, T/C (second compound 3.16 µM, first compound 0.0949 µM): 17.3%
viability, T/C (second compound 3.16 µM, first compound 0.3 µM): 9.67%
viability, T/C (second compound 10 µM, first compound 0.000949 µM): 24.6%
viability, T/C (second compound 10 µM, first compound 0.003 µM): 28.9%
viability, T/C (second compound 10 µM, first compound 0.00949 µM): 32%
viability, T/C (second compound 10 µM, first compound 0.03 µM): 17.6%
viability, T/C (second compound 10 µM, first compound 0.0949 µM): 6.54%
viability, T/C (second compound 10 µM, first compound 0.3 µM): 3.87%

Nc1ccccc1NC(=O)c1ccc(CNC(=O)OCc2cccnc2)cc1 + Cc1cncc(-c2nc(NCCc3c[nH]c4ccccc34)c3ncn(C(C)C)c3n2)c1
IC50 (second compound 0.1 µM): 3140 nM
IC50 (second compound 0.316 µM): 3060 nM
IC50 (second compound 1 µM): 3740 nM
IC50 (second compound 3.16 µM): 3300 nM
IC50 (second compound 10 µM): < 31.6 nM
viability, T/C [1]: 91.1%
viability, T/C [2]: 94.1%
viability, T/C [3]: 100%
viability, T/C [4]: 96%
viability, T/C [5]: 49.7%
viability, T/C [6]: 8.44%
viability, T/C [7]: 101%
viability, T/C [8]: 105%
viability, T/C [9]: 101%
viability, T/C [10]: 93.5%
viability, T/C [11]: 48.8%
viability, T/C [12]: 7.07%
viability, T/C [13]: 82%
viability, T/C [14]: 114%
viability, T/C [15]: 92.2%
viability, T/C [16]: 111%
viability, T/C [17]: 57.1%
viability, T/C [18]: 8.57%
viability, T/C [19]: 94.1%
viability, T/C [20]: 97.7%
viability, T/C [21]: 93.1%
viability, T/C [22]: 86.1%
viability, T/C [23]: 51.6%
viability, T/C [24]: 8.37%
viability, T/C [25]: 42.4%
viability, T/C [26]: 36.9%
viability, T/C [27]: 23.9%
viability, T/C [28]: 10.1%
viability, T/C [29]: 2.97%
viability, T/C [30]: 0.95%

Nc1ccn(C2OC(CO)C(O)C2(F)F)c(=O)n1 (stereo not given) + Cc1cncc(-c2nc(NCCc3c[nH]c4ccccc34)c3ncn(C(C)C)c3n2)c1
IC50 (second compound 0.1 µM): < 31.6 nM
IC50 (second compound 0.316 µM): < 31.6 nM
IC50 (second compound 1 µM): < 31.6 nM
IC50 (second compound 3.16 µM): < 31.6 nM
IC50 (second compound 10 µM): < 31.6 nM
viability, T/C [1]: 7.18%
viability, T/C [2]: 8.73%
viability, T/C [3]: 9.08%
viability, T/C [4]: 7.46%
viability, T/C [5]: 9.53%
viability, T/C [6]: 8.43%
viability, T/C [7]: 7.58%
viability, T/C [8]: 7.59%
viability, T/C [9]: 8.77%
viability, T/C [10]: 7.4%
viability, T/C [11]: 9.8%
viability, T/C [12]: 10.2%
viability, T/C [13]: 8.42%
viability, T/C [14]: 8.73%
viability, T/C [15]: 8.67%
viability, T/C [16]: 8.54%
viability, T/C [17]: 10.4%
viability, T/C [18]: 9.89%
viability, T/C [19]: 8.88%
viability, T/C [20]: 9.87%
viability, T/C [21]: 8.78%
viability, T/C [22]: 9.16%
viability, T/C [23]: 10.2%
viability, T/C [24]: 11.2%
viability, T/C [25]: 9.79%
viability, T/C [26]: 9.68%
viability, T/C [27]: 7.97%
viability, T/C [28]: 8.56%
viability, T/C [29]: 9.28%
viability, T/C [30]: 10.2%

O=C(c1cc(Cc2n[nH]c(=O)c3ccccc23)ccc1F)N1CCN(C(=O)C2CC2)CC1 + Cc1cncc(-c2nc(NCCc3c[nH]c4ccccc34)c3ncn(C(C)C)c3n2)c1
IC50 (second compound 0.1 µM): > 10000 nM
IC50 (second compound 0.316 µM): > 10000 nM
IC50 (second compound 1 µM): > 10000 nM
IC50 (second compound 3.16 µM): > 10000 nM
IC50 (second compound 10 µM): < 31.6 nM
viability, T/C [1]: 107%
viability, T/C [2]: 110%
viability, T/C [3]: 88.1%
viability, T/C [4]: 110%
viability, T/C [5]: 123%
viability, T/C [6]: 123%
viability, T/C [7]: 108%
viability, T/C [8]: 103%
viability, T/C [9]: 96.5%
viability, T/C [10]: 110%
viability, T/C [11]: 125%
viability, T/C [12]: 130%
viability, T/C [13]: 97.6%
viability, T/C [14]: 96.5%
viability, T/C [15]: 100%
viability, T/C [16]: 115%
viability, T/C [17]: 125%
viability, T/C [18]: 134%
viability, T/C [19]: 115%
viability, T/C [20]: 110%
viability, T/C [21]: 115%
viability, T/C [22]: 116%
viability, T/C [23]: 146%
viability, T/C [24]: 130%
viability, T/C [25]: 48.2%
viability, T/C [26]: 44.3%
viability, T/C [27]: 38.8%
viability, T/C [28]: 41.5%
viability, T/C [29]: 28.5%
viability, T/C [30]: 21.5%
